{"source": "patent US9150567B2", "about": "“Substituted tetrazol-1-yl-phenoxymethyl-thiazol-2-yl-piperidinyl-pyrimidine salts” (CYMABAY THERAPEUTICS, INC., priority 2009, dated 2015)", "key": {"[1]": {"assay": "Systemic exposure and pharmacokinetics after single oral gavage dose of 200 mg/kg in fasted male SD rats", "type": "in vivo, Sprague Dawley (SD) rats", "conditions": "for Fold difference in plasma concentration compared to micronized free-base form: 30 hours post-dose; for Increase of systemic drug exposure in AUC0-t compared with micro MBX-2982 (free base): equivalent amounts", "protocol": "Two studies were conducted in order to compare the systemic exposure and pharmacokinetics (PK) of microcrystalline MBX-2982 and salt forms of MBX-2982 in fasted male Sprague Dawley (SD) rats following single oral gavage (PO) doses of 200 mg/kg. Four salt foms of MBX-2982 were investigate in the studies. The tested salts were HCl Form I, HCl salt Form II, mesylate salt and the tosylate salt.\nPreparation of samples was performed by solvent precipitation of plasma proteins in a 1 mL/well 96-well plate. Standards were prepared by spiking 10 μL of blank plasma with 10 μL of standard solution (acetonitrile containing MBX-2982 at 0.01, 0.02, 0.05, 0.1, 0.2, 0.5, 1, 2, 5, 10, 20, 50 and 100 μg/mL) and 300 μL of 0.1% formic acid in acetonitrile containing 0.2 μg/mL internal standard. Plasma samples were prepared by adding 10 μL of plasma sample, 10 μL of acetonitrile, and 300 μL of 0.2 μg/mL internal standard in 0.1% formic acid in acetonitrile. After addition of the organic solvents, all samples were vortexed briefly and centrifuged at 3600 rpm for 10 minutes. Some of the samples were diluted 1.3 to 2-fold with blank plasma. An aliquot of the supernatant (25 μL) was transfer to a 1 mL/well 96-well plate and mixed with 200 μL water/ACN (50/50, v/v) and injected into the HPLC.\nThe suspensions for microcrystalline MBX-2982 (free base) and salt forms of MBX-2982 were prepared in 1% carboxymethylcellulose and 2% tween 80 in water (w/w/v).\nFive groups of animals were given microcrystalline and salt forms suspension doses of MBX-2982 orally at 200 mg/kg, respectively. Food was withheld the night before dose and returned nine hours after dosing. Blood samples were collected at 0.25, 0.5, 1, 2, 4, 6, 9, 24, 30 and 48 h post dose. MBX-2982 plasma concentration from these samples was analyzed by a non-validated high performance liquid chromatography in conjunction with mass spectrometry (LC-MS/MS) method.\nPlasma concentration-time data for individual animals were analyzed using WinNonlin software (Professional, version 5.0.1; Pharsight Corp.). A non-compartmental model (model 200) was used. Peak area ratios of MBX-2982 to internal standard and concentration were fitted to a quadratic equation (Calibration Curve) with 1/x weighting using a quadratic regression program in Analyst version 1.4.2 (Applied Biosystem Inc). The equations were then used to interpolate the concentrations of MBX-2982 in samples from peak area to internal standard ratio.\nThe following pharmacokinetic parameters were calculated: • 1) Cmax: Maximum (peak) plasma concentration • 2) Tmax: Time at which Cmax occurred • 3) t1/2: Terminal phase half-life • 4) AUC0-t: Area under the concentration-time curve from time 0 to last measurable concentration • 5) AUC0-inf: Area under the concentration-time curve from time 0 extrapolated to infinity"}, "[2]": {"assay": "Moisture sorption of HCl Form I", "type": "physicochemical", "text": "A steady ˜0.9 wt % gain was observed between ˜5% and ˜95% RH. A complete desorption occurred upon decreasing relative humidity to ˜5% (˜0.9 wt % loss between ˜95% and ˜5% RH)."}, "[3]": {"assay": "Overnight / elevated RH stress of the crystalline salts", "type": "physicochemical", "conditions": "overnight / elevated relative humidity stress"}, "[4]": {"conditions": "fasted male SD rats, single PO dose 200 mg/kg, mean ± SD"}}, "note": "Where a name gives a salt, the structure may show the parent alone. Read-outs that look alike come from different tables or passages of the source."}
{"smiles": "CCc1cnc(N2CCC(c3nc(COc4ccc(-n5cnnn5)cc4)cs3)CC2)nc1.Cl", "note": "[HCl Salt Form I, 5-ethyl-2-{4-[4-(4-tetrazol-1-yl-phenoxymethyl)-thiazol-2-yl]-piperidin-1-yl}-pyrimidine hydrochloride]", "values": [{"measurement": "Mean plasma concentration of MBX-2982", "setting": "[1]; 0.5 h post dose, fasted male SD rats, PO 200 mg/kg, mean ± SD, hydrochloride", "value": "9790 ± 3730", "unit": "ng/mL"}, {"measurement": "Mean plasma concentration of MBX-2982", "setting": "[1]; 1 h post dose, fasted male SD rats, PO 200 mg/kg, mean ± SD, hydrochloride", "value": "15500 ± 3150", "unit": "ng/mL"}, {"measurement": "Mean plasma concentration of MBX-2982", "setting": "[1]; 2 h post dose, fasted male SD rats, PO 200 mg/kg, mean ± SD, hydrochloride", "value": "24200 ± 3350", "unit": "ng/mL"}, {"measurement": "Mean plasma concentration of MBX-2982", "setting": "[1]; 4 h post dose, fasted male SD rats, PO 200 mg/kg, mean ± SD, hydrochloride", "value": "31400 ± 7100", "unit": "ng/mL"}, {"measurement": "Mean plasma concentration of MBX-2982", "setting": "[1]; 6 h post dose, fasted male SD rats, PO 200 mg/kg, mean ± SD, hydrochloride", "value": "28100 ± 8460", "unit": "ng/mL"}, {"measurement": "Mean plasma concentration of MBX-2982", "setting": "[1]; 9 h post dose, fasted male SD rats, PO 200 mg/kg, mean ± SD, hydrochloride", "value": "23800 ± 6990", "unit": "ng/mL"}, {"measurement": "Mean plasma concentration of MBX-2982", "setting": "[1]; 24 h post dose, fasted male SD rats, PO 200 mg/kg, mean ± SD, hydrochloride", "value": "7430 ± 9630", "unit": "ng/mL"}, {"measurement": "Mean plasma concentration of MBX-2982", "setting": "[1]; 24 h post dose, fasted male SD rats, PO 200 mg/kg, mean ± SD, listed as HCl form I, hydrochloride", "value": 7300, "unit": "ng/mL"}, {"measurement": "Fold difference in plasma concentration compared to micronized free-base form", "setting": "[1]; male SD rats, PO 200 mg/kg, listed as HCl form I, hydrochloride", "value": 94, "unit": "fold"}, {"measurement": "Mean plasma concentration of MBX-2982", "setting": "[1]; 30 h post dose, fasted male SD rats, PO 200 mg/kg, mean ± SD, hydrochloride", "value": "7520 ± 12630", "unit": "ng/mL"}, {"measurement": "Mean plasma concentration of MBX-2982", "setting": "[1]; 48 h post dose, fasted male SD rats, PO 200 mg/kg, mean ± SD, hydrochloride", "value": "1080 ± 2310", "unit": "ng/mL"}, {"measurement": "Increase of systemic drug exposure in AUC0-t compared with micro MBX-2982 (free base)", "setting": "[1]; male SD rats, PO 200 mg/kg, hydrochloride", "value": 2.4, "unit": "fold"}, {"measurement": "concentration at 30 h", "setting": "[1]; male, Sprague-Dawley, rat, plasma, po, 30 h post dose, male SD rats, PO 200 mg/kg, read-out: Plasma level at 30 hours post-dose", "value": 7.52, "unit": "ng/mL"}, {"measurement": "half-life", "setting": "[1]; male, Sprague-Dawley, rat, plasma, po, fasted male SD rats, single PO dose 200 mg/kg, mean ± SD", "value": "4.01 ± 1.68", "unit": "h"}, {"measurement": "AUC(0-t)", "setting": "[1]; male, Sprague-Dawley, rat, plasma, po, fasted male SD rats, single PO dose 200 mg/kg, mean ± SD, read-out: AUC0-24", "value": "454 ± 98.4", "unit": "µg·h/mL"}, {"measurement": "AUC0-inf", "setting": "[1]; male, Sprague-Dawley, rat, plasma, po, fasted male SD rats, single PO dose 200 mg/kg, mean ± SD, read-out: AUC0-inf", "value": "536 ± 29.9", "unit": "µg·h/mL"}, {"measurement": "AUC(0-t)", "setting": "[1]; male, Sprague-Dawley, rat, plasma, po, fasted male SD rats, single PO dose 200 mg/kg, mean ± SD, read-out: AUC0-t", "value": "571 ± 249", "unit": "µg·h/mL"}, {"measurement": "Cmax", "setting": "[1]; male, Sprague-Dawley, rat, plasma, po, fasted male SD rats, single PO dose 200 mg/kg, mean ± SD, read-out: Cmax", "value": "31200 ± 7410", "unit": "ng/mL"}, {"measurement": "Tmax", "setting": "[1]; male, Sprague-Dawley, rat, plasma, po, fasted male SD rats, single PO dose 200 mg/kg, mean ± SD, read-out: Tmax", "value": "7.25 ± 9.25", "unit": "h"}, {"measurement": "Weight gain on sorption", "setting": "[2]; between ~5% and ~95% RH", "value": "~0.9", "unit": "wt %"}, {"measurement": "Weight loss on desorption", "setting": "[2]; between ~95% and ~5% RH", "value": "~0.9", "unit": "wt %"}, {"measurement": "Weight loss upon equilibration", "setting": "[2]; equilibration at ~5% RH", "value": "~0.3", "unit": "wt %"}]}
{"smiles": "CCc1cnc(N2CCC(c3nc(COc4ccc(-n5cnnn5)cc4)cs3)CC2)nc1", "note": "[Tosylate Salt, 5-ethyl-2-{4-[4-(4-tetrazol-1-yl-phenoxymethyl)-thiazol-2-yl]-piperidin-1-yl}-pyrimidine]", "values": [{"measurement": "Mean plasma concentration of MBX-2982", "setting": "[1]; 0.5 h post dose, fasted male SD rats, PO 200 mg/kg, mean ± SD", "value": "10100 ± 2450", "unit": "ng/mL"}, {"measurement": "Mean plasma concentration of MBX-2982", "setting": "[1]; 1 h post dose, fasted male SD rats, PO 200 mg/kg, mean ± SD", "value": "13000 ± 3330", "unit": "ng/mL"}, {"measurement": "Mean plasma concentration of MBX-2982", "setting": "[1]; 2 h post dose, fasted male SD rats, PO 200 mg/kg, mean ± SD", "value": "19700 ± 2550", "unit": "ng/mL"}, {"measurement": "Mean plasma concentration of MBX-2982", "setting": "[1]; 4 h post dose, fasted male SD rats, PO 200 mg/kg, mean ± SD", "value": "23600 ± 6900", "unit": "ng/mL"}, {"measurement": "Mean plasma concentration of MBX-2982", "setting": "[1]; 6 h post dose, fasted male SD rats, PO 200 mg/kg, mean ± SD", "value": "20300 ± 11200", "unit": "ng/mL"}, {"measurement": "Mean plasma concentration of MBX-2982", "setting": "[1]; 9 h post dose, fasted male SD rats, PO 200 mg/kg, mean ± SD", "value": "18600 ± 10550", "unit": "ng/mL"}, {"measurement": "Mean plasma concentration of MBX-2982", "setting": "[1]; 24 h post dose, fasted male SD rats, PO 200 mg/kg, mean ± SD", "value": "4200 ± 5510", "unit": "ng/mL"}, {"measurement": "Mean plasma concentration of MBX-2982", "setting": "[1]; 24 h post dose, fasted male SD rats, PO 200 mg/kg, mean ± SD, listed as tosylate", "value": 4200, "unit": "ng/mL"}, {"measurement": "Fold difference in plasma concentration compared to micronized free-base form", "setting": "[1]; male SD rats, PO 200 mg/kg", "value": 40, "unit": "fold"}, {"measurement": "Mean plasma concentration of MBX-2982", "setting": "[1]; 30 h post dose, fasted male SD rats, PO 200 mg/kg, mean ± SD", "value": "3180 ± 5880", "unit": "ng/mL"}, {"measurement": "Mean plasma concentration of MBX-2982", "setting": "[1]; 30 h post dose, fasted male SD rats, PO 200 mg/kg, mean ± SD, listed as tosylate", "value": 3180, "unit": "ng/mL"}, {"measurement": "Mean plasma concentration of MBX-2982", "setting": "[1]; 48 h post dose, fasted male SD rats, PO 200 mg/kg, mean ± SD", "value": "20 ± 10", "unit": "ng/mL"}, {"measurement": "AUC0-24", "setting": "[1]; [4]", "value": "342 ± 117", "unit": "µg·h/mL"}, {"measurement": "AUC0-inf", "setting": "[1]; [4]", "value": "393 ± 98.1", "unit": "µg·h/mL"}, {"measurement": "AUC(0-t)", "setting": "[1]; [4]", "value": "392 ± 98.2", "unit": "µg·h/mL"}, {"measurement": "Cmax", "setting": "[1]; [4]", "value": "26100 ± 7980", "unit": "ng/mL"}, {"measurement": "Tmax", "setting": "[1]; [4]", "value": "4.00 ± 1.63", "unit": "h"}, {"measurement": "t1/2", "setting": "[1]; [4]", "value": "3.20 ± 0.88", "unit": "h"}, {"measurement": "Increase of systemic drug exposure in AUC0-t compared with micro MBX-2982 (free base)", "setting": "[1]; male SD rats, PO 200 mg/kg", "value": 1.7, "unit": "fold"}, {"measurement": "Appearance of the material after RH stress", "setting": "[3]", "value": "remained a free flowing powder"}]}
